# Laboratory results from patent US20210395676A1, “CARRIER FOR CELL CULTURE COMPRISING MICROCAPSULES CONTAINING NATURAL OIL” (Korea Research Institute of Chemical Technology, priority 2018, published 2021).
# System: artificial myocardial structure (cardiac organoid)
# Test: Contractile force-based cardiac toxicity assessment of drug-treated artificial myocardial structure
# Format: cell-based
# Conditions: FIG. 15
# Excerpt: Furthermore, after additionally treating an artificial myocardial structure prepared by coculturing gelatin oil capsules and cardiomyocytes with various drugs, contractile forces of the drug-treated artificial myocardial structure were checked.
Structure (SMILES),beat rates (125 nM),beat rates (10 nM),contractile forces (10 nM)
COc1ccc(CCN(C)CCCC(C#N)(c2ccc(OC)c(OC)c2)C(C)C)cc1OC (stereo not drawn) [verapamil],slow down and become somewhat irregular,–,–
CC(C)NCC(O)c1ccc(O)c(O)c1 (stereo not drawn) [Isopreterenol],–,accelerated,changed strongly
